# How the values were obtained:
# Assay type in all cases: cell-based, human
# ZO-1 and Occludin = assay: Expression of tight junction factors ZO-1 and Occludin in Caco-2 cells with LPS-induced inflammation (RT-PCR, Western blot); conditions: Caco-2, allulose 5, 10, 20 mM 6 hours, then LPS 1 μg/ml 12 hours; vs level decreased by inflammation
# Description: Caco-2 cells were cultured in 24-well plates at a density of 2×10^5 cells/well. The medium was replaced every other day, and the cells were cultured for 6 hours after treatment with 5, 10, and 20 mM allulose, and reacted for 12 hours after treatment with LPS (1 μg/ml). After extracting RNA from the cells using Trizol, cDNA was synthesized using a cDNA synthesis kit, and the gene expression level was confirmed by qRT-PCR using primers designed for each gene. The PCR conditions used were denaturation at 95° C. for 15 seconds, annealing at 62° C. for 30 seconds, and elongation at 72° C. for 1 minute. For protein expression analysis, proteins were extracted from the cultured cells using RIPA lysis buffer. The extracted proteins were pretreated by reacting at 95° C. for 5 minutes, and then separated by electrophoresis on SDS-PAGE. After transferring the proteins to the PVDF membrane, they were blocked in a 5% (w/v) BSA solution for 1 hour, and the primary antibodies for each factor were diluted 1:1000 in a 5% (w/v) BSA solution and reacted at 4° C. for 1 day. […] The bands were detected using a LAS 4000 system, and the expression density was calculated using image detection software (image J software) to calculate the expression amount.
# Caco-2 cells = assay: ROS accumulation with DCFH-DA fluorescent probe in Caco-2 cells with LPS-induced inflammation; conditions: Caco-2, LPS 1 μg/ml and allulose 5, 10, 20 mM 12 h
# Description: Caco- 2 cells were seeded at 5×10^4 cells/well in 96-well plates and cultured. After simultaneous treatment with LPS (1 μg/ml) and allulose at concentrations of 5 mM, 10 mM, and 20 mM, the cells were cultured for 12 h under conditions of 5% CO2 and 37° C. After removing the culture supernatant, DCF-DA was added to the medium at a concentration of 20 μM and cultured in an incubator for 30 min. After culture, the cells were washed with PBS and the amount of ROS production was measured using fluorescence absorbance at excitation of 488 nm and emission of 535 nm.
# [1] = tested on: mucin genes (MUC2, MUC5AC, MUC5B); assay: Mucin gene expression in HT-29 cells with LPS-induced inflammation (RT-PCR); conditions: HT-29, RT-PCR, allulose 5, 10, 20 mM, LPS 1 μg/ml 24 hours
# Description: The effect of allulose on expression level of mucins was confirmed in HT-29 cells with LPS-induced inflammation. Specifically, HT-29 cells were seeded at a concentration of 2×10^5 cells/well in 24-well plates and cultured in an incubator at 37° C. and % CO2 for 6-7 days. Allulose dissolved in RPMI 1640 medium of a HT-29 culture medium, was simultaneously treated at concentrations of 5, 10, and 20 mM, and after 8 hours, LPS (1 μg/ml) was treated to induce inflammation for 24 hours. Afterwards, the cells were washed with PBS, RNA was extracted from the cells using Trizol, and cDNA was synthesized using a cDNA synthesis kit. Then, the expression level of the gene was assessed by qRT-PCR using primers produced for mucin genes (MUC2, MUC5AC, MUC5B) that protected the intestinal mucosa. The PCR conditions used were denaturation at 95° C. for 15 seconds, annealing at 62° C. for 30 seconds, and elongation at 72° C. for 1 minute.
# [2] = tested on: Prostaglandin E2 and COX-2; assay: Prostaglandin E2 (ELISA) and COX-2 (RT-PCR) in Caco-2 cells with LPS-induced inflammation; conditions: allulose 5, 10, 20 mM 6 hours, then LPS 1 μg/ml 12 hours
# Description: Caco-2 cells were cultured in 24-well plates at a density of 2×10^5 cells/well. The medium was replaced every two days, and allulose was simultaneously treated at concentrations of 5 mM, 10 mM, and 20 mM, and cultured for 6 hours after treatment and reacted for 12 hours after LPS (1 μg/ml) treatment. The supernatant was used for ELISA analysis, and RNA was extracted from the cells using Trizol, and cDNA was synthesized using a cDNA synthesis kit. Then, the expression level of the genes was assessed by qRT-PCR using primers designed for each gene. The PCR conditions used were denaturation at 95° C. for 15 seconds, annealing at 62° C. for 30 seconds, and an elongation process at 72° C. for 1 minute.
# [3] = tested on: TLR4/NF-κB signaling and TLR4/MAPK signaling; assay: Expression of TLR4/NF-κB and TLR4/MAPK signaling factors in HT-29 cells with LPS-induced inflammation (RT-PCR, Western blot); conditions: HT-29, allulose 5, 10, 20 mM, LPS 1 μg/ml
# Description: HT-29 cells were treated simultaneously with LPS (1 μg/ml) and allulose, and reacted for 8 hours. Specifically, HT-29 cells were seeded at a concentration of 2×10^5 cells/well in 24-well plates and cultured in an incubator at 37° C. and % CO2 for 6-7 days. Allulose dissolved in RPMI 1640 medium, which is a HT-29 culture medium, was treated simultaneously at concentrations of 5, 10, and 20 mM, and after 8 hours, LPS (1 μg/ml) was treated to induce inflammation for 24 hours.
# The gene and protein expression levels of Factors involved in TLR4/NF-κB signaling and TLR4/MAPK signaling were confirmed using RT-PCR and Western blot. After extracting RNA from cells using Trizol, cDNA was synthesized using a cDNA synthesis kit, and the gene expression levels were measured by qRT-PCR using primers designed for each gene. The PCR conditions used were denaturation at 95° C. for 15 seconds, annealing at 62° C. for 30 seconds, and elongation at 72° C. for 1 minute. For protein expression analysis, proteins were extracted from cultured cells using RIPA lysis buffer. The extracted proteins were pretreated by reacting at 95° C. for 5 minutes, and then separated by electrophoresis in SDS-PAGE. After transferring the protein to the PVDF membrane, it was blocked in 5% (w/v) BSA solution for 1 hour, and the primary antibody for each factor was diluted 1:1000 with 5% (w/v) BSA solution and reacted at 4° C. for 1 day. The membrane reacted with the primary antibody was reacted with the secondary antibody in tris-buffered saline solution containing 0.1% (v/v) Tween 20 for 1 hour at room temperature. The bands were detected using the LAS 4000 system, and the expression density was calculated using image detection software (image J software) to calculate the expression amount.
# TLR4/NF-κB signaling = assay: Expression of TLR4/NF-κB signaling factors in Caco-2 cells with LPS-induced inflammation (RT-PCR, Western blot); conditions: Caco-2, allulose 5, 10, 20 mM, LPS 1 μg/ml 24 hours
# Description: The anti-inflammatory effect of allulose was confirmed in Caco-2 cells with inflammation induced with LPS (Lipopolysaccharide). The gene and protein expression levels of factors (p50, p65, TLR4, MyD88, IKKα, IKKβ, IKβα, IRAK4, TRAF6) related to TLR4/NF-κB signaling, which is a signaling that mediates the inflammatory response, were confirmed through RT-PCR and Western blot.
# Specifically, Caco-2 cells were cultured and differentiated at a density of 2×10^5 cells/well in 24-well plates and simultaneously treated with allulose dissolved in MEM medium as culture medium of Caco-2 cells, at concentrations of 5, 10, and 20 mM. After 6 hours, LPS (1 μg/ml) was treated to induce inflammation for 24 hours. The culture was performed in an incubator at 5% CO2 and 37° C.
# As a negative control, Caco-2 cells not treated with LPS were used. As a positive control, the differentiated Caco-2 cells which were treated with LPS to induce inflammation but not treated with allulose were used.
# After extracting RNA from the cells using Trizol, cDNA was synthesized using a cDNA synthesis kit, and the expression level of the genes was confirmed by qRT-PCR using primers designed for each gene. The PCR conditions used were denaturation at 95° C. for 15 seconds, annealing at 62° C. for 30 seconds, and an elongation process at 72° C. for 1 minute. For protein expression analysis, proteins were extracted from the cultured cells using RIPA lysis buffer. The extracted proteins were pretreated by reaction at 95° C. for 5 minutes, and then separated by electrophoresis on SDS-PAGE. After the proteins were transferred to a PVDF membrane, they were blocked in a 5% (w/v) BSA solution for 1 hour, and the primary antibodies for each factor were diluted 1:1000 in a 5% (w/v) BSA solution and reacted at 4° C. for one day. […] The bands were detected using a LAS 4000 system, and the expression density was calculated using image detection software (Image J software) to calculate the expression amount.
# polarized Caco-2 cells = assay: Transepithelial electrical resistance (TEER) in polarized Caco-2 cells treated with IFN-γ/TNF-α; conditions: polarized Caco-2, IFN-γ 10 ng/ml 24 hours, allulose 1 hour, TNF-α 10 ng/ml 6 hours; vs TEER decreased by IFN-γ/TNF-α
# Description: Transepithelial electrical resistance (TEER) was measured as an indicator of the adhesive strength between intestinal epithelial cells using allulose as an active ingredient, and the electrical resistance values of the upper and lower layers of intestinal cells for allulose materials were examined. Specifically, Caco-2 cells were seeded in the upper layer of a Transwell insert at a concentration of 5×10^4 cells/well, and 600 μl of medium without cells was added to the lower layer and cultured. The medium was replaced every 2 days, and cultured for 3 weeks to form polarization. After polarization formation, the upper layer with cells was pre-treated with IFN-γ (10 ng/ml) for 24 hours, allulose was treated at various concentrations for 1 hour, and TNF-α (10 ng/ml) was treated for 6 hours. After the reaction was completed, the electrical resistance value TEER was measured using a Millicell ERS-2 Voltohmmeter.
smiles,measurement,setting,value
O=C(CO)C(O)C(O)C(O)CO (centres unmarked) [allulose],mRNA and protein expression levels of Occludin,ZO-1 and Occludin,increased
same,mRNA and protein expression levels of ZO-1,ZO-1 and Occludin,increased
same,accumulated ROS,Caco-2 cells,reduced
same,expression level of MUC2,[1],decreased
same,expression level of MUC5AC,[1],decreased
same,expression level of MUC5B,[1],decreased
same,concentration of Prostaglandin E2,"[2]; Caco-2, ELISA of supernatant",decreased
same,expression level of COX-2,"[2]; Caco-2, RT-PCR",decreased
same,"MAPK signal (p38, p-p38, JNK, p-JNK, c-Jun, p-c-Jun, c-Fos, p-c-Fos)",[3],decreased
same,"MyD88, IRAK4, TRAF6 expression",[3],decreased
same,"NF-κB signal (p50, p65, p-p65, Ikkα, Ikkβ, p-Ikkαβ, Ikβα, p-Ikβα)",[3],decreased
same,expression level of COX-2,[3],decreased
same,expression level of TLR4,[3],decreased
same,expression amount of NF-κB p65/p50,TLR4/NF-κB signaling,decreased
same,expression amount of TLR4 activated by LPS,TLR4/NF-κB signaling,decreased
same,expression level of factors related to TLR4/NF-κB signaling (mRNA and protein),TLR4/NF-κB signaling; vs LPS control without allulose,decreased
same,electrical resistance value (TEER),polarized Caco-2 cells,increased
